# US20240300958A1, “COMPOUNDS AND THE USES AND PHARMACEUTICAL COMPOSITIONS THEREOF” (BEIJING YOUZHUJU NETWORK TECHNOLOGY CO. LTD., priority 2023, published 2024)
# Target: DDR1 (Homo sapiens (Human), UniProt Q08345)
# Test: DDR1 kinase inhibition assay (FAM-labeled peptide), IC50
# Format: biochemical
# Description: 1× kinase base buffer (50 mM HEPES, pH 7.5, 0.0015% Brij-35) and a stop buffer (100 mM HEPES, pH 7.5, 0.015% Brij-35, 0.2% Coating Reagent #3, 50 mM EDTA) were prepared for testing kinases.
# The compounds were diluted with 100% DMSO to 100 times the highest final inhibitor concentration required in the reaction. 100 μl of dilution of the compound was transferred to wells of a 96-well plate. For example, 100000 nM solution of the compound in DMSO was prepared in this step in case that an inhibitor concentration of 1000 nM is required. 100 μl of 100% DMSO was added to two empty wells of a 96-well plate for no compound control and no enzyme control. This plate was labeled as the source plate. A new 96-well plate with 5 μl of compound transferred from the source plate is used as an intermediate plate. 95 μl of 1× kinase buffer was added to each well of the intermediate plate. The compounds in the intermediate plate was mixed on a shaker for 10 minutes.
# 5 μl of sample in each well from the 96-well intermediate plate was transferred to the 384-well plate in duplicate. For example, well A1 of the 96-well plate was transferred to wells A2 and A1 of the 384-well plate, and well A2 of the 96-well plate was transferred to wells A3 and A4 of the 384-well plate, and so forth. 2.5× enzyme solution was prepared: 1× kinase basal buffer with added kinase. 2.5× peptide solution was prepared: 1× kinase basal buffer with added FAM-labeled peptide and ATP. To an assay plate already contained 5 μl of 10% dimethyl sulfoxide compound, 2.5× enzyme solution was transferred, and each well of the 384-well assay plate was added 10 μl of 2.5× enzyme solution. After incubation at room temperature for 10 minutes, 2.5× peptide solution was transferred to the assay plate. Each well of the 384-well assay plate was added 10 μl of 2.5× peptide solution. Kinase reaction and termination: incubation at 28° C. for a specified period followed by the addition of 25 μl stop buffer to stop the reaction. The data was read and collected.
# Chain of DDR1 (Q08345 other isoform, or with tags, fused parts or gaps isoform Q08345-2): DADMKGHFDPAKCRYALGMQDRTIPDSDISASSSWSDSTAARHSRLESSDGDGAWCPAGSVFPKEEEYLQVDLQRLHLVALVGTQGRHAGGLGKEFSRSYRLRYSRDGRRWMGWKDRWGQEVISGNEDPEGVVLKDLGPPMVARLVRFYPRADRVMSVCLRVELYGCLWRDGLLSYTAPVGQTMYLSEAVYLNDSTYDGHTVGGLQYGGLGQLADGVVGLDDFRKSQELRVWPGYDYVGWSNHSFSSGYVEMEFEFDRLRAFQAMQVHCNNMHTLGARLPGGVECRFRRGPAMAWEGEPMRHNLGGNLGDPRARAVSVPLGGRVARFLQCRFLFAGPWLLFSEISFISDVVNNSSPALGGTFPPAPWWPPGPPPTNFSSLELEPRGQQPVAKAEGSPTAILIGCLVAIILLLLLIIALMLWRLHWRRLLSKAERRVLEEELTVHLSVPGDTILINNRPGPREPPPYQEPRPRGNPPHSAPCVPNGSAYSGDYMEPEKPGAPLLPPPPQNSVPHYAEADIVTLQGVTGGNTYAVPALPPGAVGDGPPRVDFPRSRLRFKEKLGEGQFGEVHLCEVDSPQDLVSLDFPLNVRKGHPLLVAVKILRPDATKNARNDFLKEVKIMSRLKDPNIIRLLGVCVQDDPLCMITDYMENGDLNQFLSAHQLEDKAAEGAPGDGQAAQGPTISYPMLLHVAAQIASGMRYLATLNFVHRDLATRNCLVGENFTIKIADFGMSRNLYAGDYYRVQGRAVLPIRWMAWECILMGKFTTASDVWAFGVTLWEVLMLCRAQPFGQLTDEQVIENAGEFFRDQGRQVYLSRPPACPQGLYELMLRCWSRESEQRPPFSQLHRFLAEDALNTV
row,Structure (SMILES),IC50 [nM]
1,CCc1ccc(C(=O)Nc2ccccn2)cc1C#Cc1cnc2cc(C3=CCCCC3)cnn12 [Compound C9],< 500
2,Cc1ccc(C(=O)Nc2ccccn2)cc1-c1cccc(-c2cnc3cc(C4=CCCCC4)cnn23)c1 [Compound C11],< 500
3,Cc1ccc(C(=O)Nc2ccccn2)cc1C#Cc1cnc2cc(C3CC=CC3)cnn12 [Compound C8],< 500
4,CC(C)c1ccc(C(=O)Nc2ccccn2)cc1C#Cc1cnc2cc(C3=CCCCC3)cnn12 [Compound C10],< 500
5,Cc1ccc(C(=O)Nc2ccccn2)cc1C#Cc1cnc2cc(C3C=CCC3)cnn12 (stereo not drawn) [Compound C7],< 500
6,Cc1ccc(C(=O)Nc2ccccn2)cc1C#Cc1cnc2cc(C3CCCCC3)cnn12 [Compound C2],< 500
7,"O=C(N[C@H]1CC[C@H](O)CC1)c1ccc2ccc(-c3ccc(NC4CCCCC4)cc3)cc2n1 [DC1, reference compound]",> 1000
8,Cc1cc(-c2cc(C(=O)Nc3ccccn3)ccc2C)cc(-c2cnc3cc(C4=CCCCC4)cnn23)c1 [Compound C12],< 500
9,Cc1ccc(C(=O)Nc2ccccn2)cc1C#Cc1cnc2cc(C3CC=CCC3)cnn12 (stereo not drawn) [Compound C4],< 500
10,Cc1ccc(C(=O)Nc2ccccn2)cc1C#Cc1cnc2cc(C3=CCCC3)cnn12 [Compound C6],< 500
11,Cc1ccc(C(=O)Nc2ccccn2)cc1C#Cc1cnc2cc(C3CCCC3)cnn12 [Compound C5],< 500
12,Cc1ccc(C(=O)Nc2ccccn2)cc1C#Cc1cnc2cc(C3C=CCCC3)cnn12 (stereo not drawn) [Compound C3],< 500
